# Assay results published in US10604510B2, “Solid forms comprising (1E, 4E)-2-amino-N,N-dipropyl-8-(4-(pyrrolidine-1-carbonyl)phenyl)-3H-benzo[B]azepine-4-carboxami compositions thereof, and uses thereof” (Celgene Corporation, priority 2014, dated 2020).
# Like-named read-outs stand apart in the source and are kept apart here.
# Legend:
# Format in all cases: physicochemical
# [1] = Solubility of Forms A and G after 40 min stirring; conditions: for solubility at 40 min: organic solvent or mixture, thermodynamic from solid
# Protocol: (§1) For purity estimation and determination of the solubility in solution a generic in-house HPLC method was used. HPLC was performed using a Phenomenex Luna 3 μm C18 (50×4.6 mm) column and detected with a DAD detector, recording at 214 nm.
# [2] = Form stability analysis (solubility and concurrent slurry experiments)
# Protocol: As form conversions tend to happen faster at elevated temperature at 60° C., slurries were performed for the starting material used for the screening (A/G mixture) during 18 h at 60° C.
# Forms J and C were identified as potential non-solvates and their stability was investigated. Form J could be eliminated as stable form because, in part, the DSC (FIG. 36) indicated an exothermic form conversion around 140° C. This leads to a form melting at 210° C., which likely represents Form G and therefore represents a monotropic relation.
# Form C was obtained by drying a Form C/J mixture. The XRPD pattern appeared to contain traces of reflexes of Form J. Slurries of Form C seeded with Form A (15% w/w) in ethanol and acetone were performed during 18 h. The resulting solid was pure Form A. This also confirmed the exothermic event observed in DSC (FIG. 16) which indicated a monotropic relation to the form formed in DSC around 130° C. (melting point 210° C., which, as described herein, is likely Form G).
# [3] = Solubility of Form A at 20° C. and 40° C.; conditions: organic solvent or mixture, thermodynamic from solid
# Protocol: as §1
# To develop a Form A crystallization, a series of solubility data points was collected (Table 5). An amount of up to 15 mg was suspended in 150 μL and the mixture stirred for 2 days. Solubility was then determined by HPLC or by calculation if a solution was observed.
# [4] = Slurry screening, solubility determined by HPLC; conditions: thermodynamic from solid; for solubility at 5 days: slurry stirred 5 days; for Solubility: solution
# Protocol: as §1
# The slurry experiments were performed by taking approximately 40 mg starting material and slurrying in each of the solvent mixtures as detailed Table 3 using a magnetic stir bar. Solvents were chosen as described to have a high diversity (e.g., in polarity, protic/aprotic). The solvents were not necessarily selected for pharmaceutical suitability in regards to ICH guidelines. Only as much solvent or mixtures as needed to slurry/suspend the material was used—starting from 200 μL to a maximum of 2 mL. The slurries were stirred for 5 days. The suspensions were filtered and the filter cake slightly dried to not destroy potential solvates and subjected to XRPD. In case suspensions started to run through the filter the suspensions were dried using a nitrogen stream. As the solubility was tested in the solvents, the evaporated solvent provides a small amount of solid compared to the material suspended (i.e., the slurry form still should be dominant).
smiles,measurement,setting,value
"CCCN(CCC)C(=O)C1=Cc2ccc(-c3ccc(C(=O)N4CCCC4)cc3)cc2N=C(N)C1 [Compound A, (1E, 4E)-2-amino-N,N-dipropyl-8-(4-(pyrrolidine-1-carbonyl)phenyl)-3H-benzo[b]azepine-4-carboxamide]",solubility at 40 min,"[1]; EtOH, 0 °C",4700 µg/mL
same,solubility at 40 min,"[1]; EtOH, 22 °C",11700 µg/mL
same,solubility at 40 min,"[1]; EtOH, 60 °C",32100 µg/mL
same,solubility at 40 min,"[1]; MEK, 0 °C",1800 µg/mL
same,solubility at 40 min,"[1]; MEK, 22 °C",2400 µg/mL
same,solubility at 40 min,"[1]; MEK, 60 °C",3700 µg/mL
"CCCN(CCC)C(=O)C1=Cc2ccc(-c3ccc(C(=O)N4CCCC4)cc3)cc2N=C(N)C1 [Form A, (1E, 4E)-2-amino-N,N-dipropyl-8-(4-(pyrrolidine-1-carbonyl)phenyl)-3H-benzo[b]azepine-4-carboxamide]",stability relative to other crystalline forms,[2],more stable than Form G at 20 °C
same,thermodynamic stability of the crystalline form,[2]; from 0° C. to 60° C.,thermodynamically most stable form
same,solubility at 2 days,"[3]; 2-PrOH, 20° C., stirred 2 days",4500 µg/mL
same,solubility at 2 days,"[3]; 2-PrOH, 40° C., stirred 2 days",9590 µg/mL
same,solubility at 2 days,"[3]; DMSO, 20° C., stirred 2 days",21600 µg/mL
same,solubility at 2 days,"[3]; DMSO, 40° C., stirred 2 days",50900 µg/mL
same,solubility at 2 days,"[3]; DMSO/EtOAc 1:1 v/v, 20° C., stirred 2 days",15000 µg/mL
same,solubility at 2 days,"[3]; DMSO/EtOAc 1:1 v/v, 40° C., stirred 2 days",36900 µg/mL
same,solubility at 2 days,"[3]; DMSO/TBME 1:1 v/v, 20° C., stirred 2 days",17200 µg/mL
same,solubility at 2 days,"[3]; DMSO/TBME 1:1 v/v, 40° C., stirred 2 days",44600 µg/mL
same,solubility at 2 days,"[3]; EtOH, 20° C., stirred 2 days",8500 µg/mL
same,solubility at 2 days,"[3]; EtOH, 40° C., stirred 2 days",24000 µg/mL
same,solubility at 2 days,"[3]; THF, 20° C., stirred 2 days",3700 µg/mL
same,solubility at 2 days,"[3]; THF, 40° C., stirred 2 days",7700 µg/mL
same,solubility at 2 days,"[3]; THF/EtOH 8:2 v/v, 20° C., stirred 2 days",13400 µg/mL
same,solubility at 2 days,"[3]; THF/EtOH 8:2 v/v, 40° C., stirred 2 days",27800 µg/mL
same,solubility at 2 days,"[3]; THF/H2O 8:2 v/v, 20° C., stirred 2 days",38600 µg/mL
same,solubility at 2 days,"[3]; THF/H2O 8:2 v/v, 40° C., clear solution with 10 vol of solvent mix",> 100000 µg/mL
same,solubility at 2 days,"[3]; Toluene/2-PrOH 7:3 v/v, 20° C., stirred 2 days",23100 µg/mL
same,solubility at 2 days,"[3]; Toluene/2-PrOH 7:3 v/v, 40° C., stirred 2 days",45900 µg/mL
same,solubility at 2 days,"[3]; Toluene/MeOH 7:3 v/v, 20° C., clear solution with 10 vol of solvent mix",> 100000 µg/mL
same,solubility at 2 days,"[3]; Toluene/MeOH 7:3 v/v, 40° C., clear solution with 10 vol of solvent mix",> 100000 µg/mL
"CCCN(CCC)C(=O)C1=Cc2ccc(-c3ccc(C(=O)N4CCCC4)cc3)cc2N=C(N)C1 [Form C, (1E, 4E)-2-amino-N,N-dipropyl-8-(4-(pyrrolidine-1-carbonyl)phenyl)-3H-benzo[b]azepine-4-carboxamide]",stability relative to other crystalline forms,[2],less stable than Forms A and G
same,form of resulting solid after slurry,"[2]; seeded with Form A (15% w/w), slurries in ethanol and acetone during 18 h",pure Form A
"CCCN(CCC)C(=O)C1=Cc2ccc(-c3ccc(C(=O)N4CCCC4)cc3)cc2N=C(N)C1 [Form G, (1E, 4E)-2-amino-N,N-dipropyl-8-(4-(pyrrolidine-1-carbonyl)phenyl)-3H-benzo[b]azepine-4-carboxamide]",stability relative to other crystalline forms,[2],less stable at 25 °C in comparison to Form A
same,Solubility,"[1]; EtOH, 0 ° C.",7600 µg/mL
same,Solubility,"[1]; EtOH, 22 ° C.",15800 µg/mL
same,Solubility,"[1]; EtOH, 60 ° C.",36900 µg/mL
same,Solubility,"[1]; MEK, 0 ° C.",2600 µg/mL
same,Solubility,"[1]; MEK, 22 ° C.",3100 µg/mL
same,Solubility,"[1]; MEK, 60 ° C.",4600 µg/mL
"CCCN(CCC)C(=O)C1=Cc2ccc(-c3ccc(C(=O)N4CCCC4)cc3)cc2N=C(N)C1 [Form H, (1E, 4E)-2-amino-N,N-dipropyl-8-(4-(pyrrolidine-1-carbonyl)phenyl)-3H-benzo[b]azepine-4-carboxamide]",stability relative to other crystalline forms,[2],Form A is more stable than Form H
"CCCN(CCC)C(=O)C1=Cc2ccc(-c3ccc(C(=O)N4CCCC4)cc3)cc2N=C(N)C1 [Form J, (1E, 4E)-2-amino-N,N-dipropyl-8-(4-(pyrrolidine-1-carbonyl)phenyl)-3H-benzo[b]azepine-4-carboxamide]",stability relative to other crystalline forms,[2],less stable than Form A
same,stability relative to other crystalline forms,[2]; listed as J,less stable than Forms A and G
"CCCN(CCC)C(=O)C1=Cc2ccc(-c3ccc(C(=O)N4CCCC4)cc3)cc2N=C(N)C1 [starting material, (1E, 4E)-2-amino-N,N-dipropyl-8-(4-(pyrrolidine-1-carbonyl)phenyl)-3H-benzo[b]azepine-4-carboxamide]",solubility at 5 days,"[4]; aqueous with cosolvent or surfactant or cyclodextrin, solvent EtOH/water 1/1",3220 µg/mL
same,solubility at 5 days,"[4]; aqueous with cosolvent or surfactant or cyclodextrin, solvent EtOH/water 3/1",21000 µg/mL
same,solubility at 5 days,"[4]; aqueous with cosolvent or surfactant or cyclodextrin, solvent IPA/water 3/1",16900 µg/mL
same,solubility at 5 days,"[4]; aqueous with cosolvent or surfactant or cyclodextrin, solvent ac/water 1/2",480 µg/mL
same,Solubility,"[4]; aqueous with cosolvent or surfactant or cyclodextrin, solvent HOAc/water 1/1",> 100000 µg/mL
same,solubility at 5 days,"[4]; organic solvent or mixture, solvent 1-propanol",12000 µg/mL
same,solubility at 5 days,"[4]; organic solvent or mixture, solvent 2-Me-THF",1030 µg/mL
same,solubility at 5 days,"[4]; organic solvent or mixture, solvent 2-propanol",6860 µg/mL
same,solubility at 5 days,"[4]; organic solvent or mixture, solvent ACN",810 µg/mL
same,solubility at 5 days,"[4]; organic solvent or mixture, solvent DCM",> 70000 µg/mL
same,solubility at 5 days,"[4]; organic solvent or mixture, solvent DMSO",28800 µg/mL
same,solubility at 5 days,"[4]; organic solvent or mixture, solvent EtOAc wet",2690 µg/mL
same,solubility at 5 days,"[4]; organic solvent or mixture, solvent MCH",80 µg/mL
same,solubility at 5 days,"[4]; organic solvent or mixture, solvent MEK",3670 µg/mL
same,solubility at 5 days,"[4]; organic solvent or mixture, solvent MIBK",790 µg/mL
same,solubility at 5 days,"[4]; organic solvent or mixture, solvent NMP",52300 µg/mL
same,solubility at 5 days,"[4]; organic solvent or mixture, solvent TBME",160 µg/mL
same,solubility at 5 days,"[4]; organic solvent or mixture, solvent THF",5710 µg/mL
same,solubility at 5 days,"[4]; organic solvent or mixture, solvent acetone",1370 µg/mL
same,solubility at 5 days,"[4]; organic solvent or mixture, solvent chlorobenzene",1810 µg/mL
same,solubility at 5 days,"[4]; organic solvent or mixture, solvent diethylether",20 µg/mL
same,solubility at 5 days,"[4]; organic solvent or mixture, solvent dioxane",5100 µg/mL
same,solubility at 5 days,"[4]; organic solvent or mixture, solvent ethanol",11600 µg/mL
same,solubility at 5 days,"[4]; organic solvent or mixture, solvent ethyl acetate",570 µg/mL
same,solubility at 5 days,"[4]; organic solvent or mixture, solvent heptane",20 µg/mL
same,solubility at 5 days,"[4]; organic solvent or mixture, solvent iPrOAc",600 µg/mL
same,solubility at 5 days,"[4]; organic solvent or mixture, solvent methanol",29800 µg/mL
same,solubility at 5 days,"[4]; organic solvent or mixture, solvent methyl acetate",940 µg/mL
same,solubility at 5 days,"[4]; organic solvent or mixture, solvent toluene",450 µg/mL
same,Solubility,"[4]; organic solvent or mixture, solvent trifluoroethanol",> 130000 µg/mL
same,solubility at 5 days,[4]; solvent water,40 µg/mL
same,form of isolated solid after slurry,[2]; slurries during 18 h at 60° C.,pure Form A
